The structures appear in SMILES notation. Like-named read-outs stand apart in the source and are kept apart here. A value given as a limit tells only on which side of the number the result lay.

One test addresses T1, FSHR (Homo sapiens, UniProt P23945).
T1 construct: expressed in transfected cells; host or cells: CHO (Cho-FSHR-LUC-1-1-43)
T1 sequence (P23945 18-695): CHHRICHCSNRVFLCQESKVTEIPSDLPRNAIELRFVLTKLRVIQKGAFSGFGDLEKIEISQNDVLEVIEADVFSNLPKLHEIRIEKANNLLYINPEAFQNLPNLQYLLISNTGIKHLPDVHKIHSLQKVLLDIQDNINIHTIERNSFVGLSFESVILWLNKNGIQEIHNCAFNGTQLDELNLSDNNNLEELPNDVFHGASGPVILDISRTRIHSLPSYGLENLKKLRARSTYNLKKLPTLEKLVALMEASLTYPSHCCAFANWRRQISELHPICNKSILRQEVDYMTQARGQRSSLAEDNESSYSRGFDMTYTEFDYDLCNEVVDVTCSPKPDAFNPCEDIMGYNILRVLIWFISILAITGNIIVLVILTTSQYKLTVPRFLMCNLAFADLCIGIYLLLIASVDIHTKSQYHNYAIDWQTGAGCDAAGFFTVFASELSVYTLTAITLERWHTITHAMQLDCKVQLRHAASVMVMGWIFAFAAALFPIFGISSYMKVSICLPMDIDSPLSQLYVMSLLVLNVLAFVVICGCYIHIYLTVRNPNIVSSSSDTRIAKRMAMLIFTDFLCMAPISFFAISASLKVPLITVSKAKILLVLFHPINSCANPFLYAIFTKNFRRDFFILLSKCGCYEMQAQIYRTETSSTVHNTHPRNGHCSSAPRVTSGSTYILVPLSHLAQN
Briefly: EC50 of cyclic AMP production in CHO FSHR cells + EC20 FSH (Assay A). In kind it is cell-based. The gist of the method:
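cAMP HTRF read-out (665 nm/620 nm ratio) after 1 h at 37° C of Cho-FSHR-LUC cells treated with serially diluted test compound plus EC20 FSH ([…]) and IBMX (final 200 μM). Responses given as percent of maximal FSH-standard effect.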

The target of test [1] is T2, follicle-stimulating hormone (FSH) receptor (Rattus norvegicus, UniProt P20395).
T2 construct: endogenous in cells; host or cells: primary rat granulosa cells
T2 sequence (P20395 18-692): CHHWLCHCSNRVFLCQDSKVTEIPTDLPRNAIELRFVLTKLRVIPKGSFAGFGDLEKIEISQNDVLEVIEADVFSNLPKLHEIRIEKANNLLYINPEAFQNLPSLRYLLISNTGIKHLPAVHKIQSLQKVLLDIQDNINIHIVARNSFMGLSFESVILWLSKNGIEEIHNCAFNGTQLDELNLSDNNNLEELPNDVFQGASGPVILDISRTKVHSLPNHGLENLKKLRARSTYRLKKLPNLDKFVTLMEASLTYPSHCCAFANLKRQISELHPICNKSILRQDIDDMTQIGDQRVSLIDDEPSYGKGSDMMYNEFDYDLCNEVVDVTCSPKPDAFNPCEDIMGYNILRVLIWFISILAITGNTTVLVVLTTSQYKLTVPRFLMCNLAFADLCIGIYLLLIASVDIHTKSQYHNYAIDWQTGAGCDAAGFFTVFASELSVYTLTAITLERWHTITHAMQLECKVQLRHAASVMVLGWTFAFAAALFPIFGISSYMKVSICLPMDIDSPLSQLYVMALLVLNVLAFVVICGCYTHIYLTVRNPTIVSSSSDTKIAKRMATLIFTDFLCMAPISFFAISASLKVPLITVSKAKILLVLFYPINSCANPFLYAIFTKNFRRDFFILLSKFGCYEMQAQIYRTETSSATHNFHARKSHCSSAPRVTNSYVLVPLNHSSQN
Briefly: Rat granulosa EC50 FSH (Assay B). In kind it is cell-based. As to conditions: rat granulosa cells; read-out: Assay B: Rat granulosa EC50 FSH. How it is done:
Rat Granulosa EC50 FSH (Assay B)
The assay was performed pursuant to the teaching of Yanofsky et al. (2006) Allosteric activation of the follicle-stimulating hormone (FSH) receptor by selective, nonpeptide agonists (JBC 281(19): 13226-13233, which is incorporated by reference in the disclosure of the invention).

[2] abbreviates: CHO FSHR cells + EC20 FSH, cAMP HTRF, read-out: Assay A: EC50 of cyclic AMP production.

For `COCCCn1cc(-c2cc3c(cc2OC)OCc2c(C(=O)N4CCOCC4(C)C)nn(-c4ccsc4)c2-3)cn1` [Compound 208, (3,3-Dimethyl-morpholin-4-yl)-{7-methoxy-8-[1-(3-methoxy-propyl)-1H-pyrazol-4-yl]-1-thiophen-3-yl-1,4-dihydro-chromeno[4,3-c]pyrazol-3-yl}-methanone], the EC50 (at FSHR (setting [2]); in test [1]) was less than 0.1 µM in each case. In the case of `[2H]C([2H])([2H])N(CCN1CCOC1=O)C(=O)c1nn(-c2ccsc2)c2c1COc1cc(OC)c(CC(C)C)cc1-2` [Compound 214], the figures for the concentration for a half-maximal effect (EC50) (on FSHR (setting [2]); in test [1]) were less than 0.1 µM and 1 to 5 µM, respectively. With `COc1cc2c(cc1-c1ccn(C)c1)-c1c(c(C(=O)NC3(CCO)COC3)nn1-c1ccsc1)CO2` [Compound 186, 7-Methoxy-8-(1-methyl-1H-pyrrol-3-yl)-1-thiophen-3-yl-1,4-dihydro-chromeno[4,3-c]pyrazole-3-carboxylic acid [3-(2-hydroxy-ethyl)-oxetan-3-yl]-amide], the concentration giving a half-maximal response (EC50) (as a rule, the concentration that produces a half-maximal response) at FSHR (setting [2]) is less than 0.1 µM; in test [1] it was 0.1 to 1 µM. Turning to `COc1cc2c(cc1-c1nc[nH]n1)-c1c(c(C(=O)N3CCOCC3(C)C)nn1-c1ccsc1)CO2` [Compound 161, (3,3-Dimethyl-morpholin-4-yl)-[7-methoxy-1-thiophen-3-yl-8-(5H-[1,2,4]triazol-3-yl)-1,4-dihydro-chromeno[4,3-c]pyrazol-3-yl]-methanone], the EC50 (on FSHR (setting [2]); in test [1]) was less than 0.1 µM throughout. For the compound `COc1cc2c(cc1C1CCCO1)-c1c(c(C(=O)N(C)C(C)(C)C)nn1-c1ccsc1)CO2` (stereo not drawn) [Compound 201, 7-Methoxy-8-(tetrahydro-furan-2-yl)-1-thiophen-3-yl-1,4-dihydro-chromeno[4,3-c]pyrazole-3-carboxylic Acid tert-butyl-methyl-amide], the EC50 at FSHR (setting [2]) fell in the range of 0.1 to 1 µM; in test [1] it was 1 to 5 µM. On to `[2H]C([2H])([2H])N(C(=O)c1nn(-c2ccsc2)c2c1COc1cc(OC)c(-c3ccn(C)n3)cc1-2)C1(C)COC1` [Compound 116], for which the EC50 is less than 0.1 µM on FSHR (setting [2]) and 1 to 5 µM in test [1]. Regarding `CCCn1cc(-c2cc3c(cc2OC)OCc2c(C(=O)N4CCOCC4(C)C)nn(-c4ccsc4)c2-3)cn1` [Compound 211, (3,3-Dimethyl-morpholin-4-yl)-[7-methoxy-8-(1-propyl-1H-pyrazol-4-yl)-1-thiophen-3-yl-1,4-dihydro-chromeno[4,3-c]pyrazol-3-yl]-methanone], the EC50 (on FSHR (setting [2]); in test [1]) was less than 0.1 µM in each case.

With `COc1cc2c(cc1-c1ccn(C)n1)-c1c(c(C(=O)N3CCNCC3(C)C)nn1-c1ccsc1)CO2` [Compound 169, (2,2-Dimethyl-piperazin-1-yl)-[7-methoxy-8-(1-methyl-1H-pyrazol-3-yl)-1-thiophen-3-yl-1,4-dihydro-chromeno[4,3-c]pyrazol-3-yl]-methanone], the EC50 on FSHR (setting [2]) was less than 0.1 µM; in test [1] it was 0.1 to 1 µM.

In the case of `COc1cc2c(cc1OC(C)C)-c1c(c(C(=O)NCCCNC(=O)C3CCC3)nn1-c1ccsc1)CO2` [Compound 28, 8-Isopropoxy-7-methoxy-1-thiophen-3-yl-1,4-dihydro-chromeno[4,3-c]pyrazole-3-carboxylic Acid [3-(cyclobutanecarbonyl-amino)-propyl]-amide], the half-maximal effective concentration (EC50) (at FSHR (setting [2]); in test [1]) was more than 5 µM each time. For `COc1cc2c(cc1-c1cnn(C(=O)OC(C)(C)C)c1)-c1c(c(C(=O)N(C)C(C)(C)C)nn1-c1ccsc1)CO2` [Compound 20, 4-[3-(tert-Butyl-methyl-carbamoyl)-7-methoxy-1-thiophen-3-yl-1,4-dihydro-chromeno[4,3-c]pyrazol-8-yl]-pyrazole-1-carboxylic acid tert-butyl ester], the concentration giving a half-maximal response (EC50) (at FSHR (setting [2]); in test [1]) was 0.1 to 1 µM each time.

As to `COC/C=C/c1cc2c(cc1OC)OCc1c(C(=O)N(C)C(C)(C)C)nn(-c3ccsc3)c1-2` [Compound 147, 7-Methoxy-8-((E)-3-methoxy-propenyl)-1-thiophen-3-yl-1,4-dihydro-chromeno[4,3-c]pyrazole-3-carboxylic acid tert-butyl-methyl-amide], the concentration giving a half-maximal response (EC50) at FSHR (setting [2]) is less than 0.1 µM; in test [1], 0.1 to 1 µM.

As to `COc1cc2c(cc1C=C(C)C)-c1c(c(C(=O)N(C)C(C)(C)C)nn1-c1ccsc1)CO2` [Compound 6, 7-Methoxy-8-(2-methyl-propenyl)-1-thiophen-3-yl-1,4-dihydro-chromeno[4,3-c]pyrazole-3-carboxylic Acid tert-butyl-methyl-amide], the concentration giving a half-maximal response (EC50) at FSHR (setting [2]) is less than 0.1 µM; in test [1], 1 to 5 µM. On to `[2H]C([2H])([2H])N(C(=O)c1nn(-c2ccsc2)c2c1COc1cc(OC)c(-c3ccn(C)c3)cc1-2)C1(C)COC1` [Compound 115], for which the EC50 was less than 0.1 µM on FSHR (setting [2]) and 0.1 to 1 µM in test [1]. For `COc1cc2c(cc1-c1ccnn1C)-c1c(c(C(=O)N3CCOCC3(C)C)nn1-c1ccsc1)CO2` [Compound 108, (3,3-Dimethyl-morpholin-4-yl)-[7-methoxy-8-(2-methyl-2H-pyrazol-3-yl)-1-thiophen-3-yl-1,4-dihydro-chromeno[4,3-c]pyrazol-3-yl]-methanone], in that order: less than 0.1 µM and 1 to 5 µM. Taken in the same sequence, the figures for `COc1cc2c(cc1-c1ccc(C)s1)-c1c(c(C(=O)N(C)C(C)(C)C)nn1-c1ccsc1)CO2` [Compound 93, 7-Methoxy-8-(5-methyl-thiophen-2-yl)-1-thiophen-3-yl-1,4-dihydro-chromeno[4,3-c]pyrazole-3-carboxylic acid tert-butyl-methyl-amide] were less than 0.1 µM and 0.1 to 1 µM. For the compound `COc1cc2c(cc1-c1ccn(C)n1)-c1c(c(C(=O)NCC3(O)COC3)nn1-c1ccsc1)CO2` [Compound 165, 7-Methoxy-8-(1-methyl-1H-pyrazol-3-yl)-1-thiophen-3-yl-1,4-dihydro-chromeno[4,3-c]pyrazole-3-carboxylic acid (3-hydroxy-oxetan-3-ylmethyl)-amide], the concentration giving a half-maximal response (EC50) at FSHR (setting [2]) is more than 5 µM. As for `COc1cc2c(cc1-c1cn[nH]c1)-c1c(c(C(=O)NCCN3CCOC3=O)nn1-c1ccsc1)CO2` [Compound 62, 7-Methoxy-8-(1H-pyrazol-4-yl)-1-thiophen-3-yl-1,4-dihydro-chromeno[4,3-c]pyrazole-3-carboxylic acid [2-(2-oxo-oxazolidin-3-yl)-ethyl]-amide], at FSHR (setting [2]), the 50% effective concentration (EC50) fell in the range of 0.1 to 1 µM.

Consider `COc1cc2c(cc1-c1cn(C)cn1)-c1c(c(C(=O)N(C)C(C)(C)C)nn1-c1ccsc1)CO2` [Compound 129, 7-Methoxy-8-(1-methyl-1H-imidazol-4-yl)-1-thiophen-3-yl-1,4-dihydro-chromeno[4,3-c]pyrazole-3-carboxylic acid tert-butyl-methyl-amide], for which the concentration for a half-maximal effect (EC50) at FSHR (setting [2]) was less than 0.1 µM.

With `COc1cc2c(cc1-c1ccn(C)c1)-c1c(c(C(=O)N(C)CC3(C)COC3)nn1-c1ccsc1)CO2` [Compound 101, 7-Methoxy-8-(1-methyl-1H-pyrrol-3-yl)-1-thiophen-3-yl-1,4-dihydro-chromeno[4,3-c]pyrazole-3-carboxylic acid methyl-(3-methyl-oxetan-3-ylmethyl)-amide], on FSHR (setting [2]), the EC50 was less than 0.1 µM.

`[2H]C([2H])([2H])OCC(C)(C)N(C(=O)c1nn(-c2ccsc2)c2c1COc1cc(OC)c(C=C(C)C)cc1-2)C([2H])([2H])[2H]` [Compound 58]: on FSHR, the half-maximal effective concentration (EC50) is less than 0.1 µM. Take `COc1cc2c(cc1-c1cc[nH]n1)-c1c(c(C(=O)N(C)C(C)(C)C)nn1-c1ccsc1)CO2` [Compound 65, 7-Methoxy-8-(1H-pyrazol-3-yl)-1-thiophen-3-yl-1,4-dihydro-chromeno[4,3-c]pyrazole-3-carboxylic acid tert-butyl-methyl-amide]: the EC50 at FSHR (setting [2]) was less than 0.1 µM.

(Values after patent US11365199B2, “Pyrazole compounds as modulators of FSHR and uses thereof” (Merck Patent GmbH, priority 2013, dated 2022).)
